Source: PMC9120017, “Inhibition mechanism of the chloride channel TMEM16A by the pore blocker 1PBC” (Nature Communications, 2022)
Read-outs that look alike come from different tables or passages of the source.

Biological target: T1, mouse TMEM16A mutant T518A (Mus musculus, UniProt Q8BHY3, T518A)
T1 construct: expressed in transfected cells; host or cells: HEK293T
T1 sequence (Q8BHY3 1-960 T518A): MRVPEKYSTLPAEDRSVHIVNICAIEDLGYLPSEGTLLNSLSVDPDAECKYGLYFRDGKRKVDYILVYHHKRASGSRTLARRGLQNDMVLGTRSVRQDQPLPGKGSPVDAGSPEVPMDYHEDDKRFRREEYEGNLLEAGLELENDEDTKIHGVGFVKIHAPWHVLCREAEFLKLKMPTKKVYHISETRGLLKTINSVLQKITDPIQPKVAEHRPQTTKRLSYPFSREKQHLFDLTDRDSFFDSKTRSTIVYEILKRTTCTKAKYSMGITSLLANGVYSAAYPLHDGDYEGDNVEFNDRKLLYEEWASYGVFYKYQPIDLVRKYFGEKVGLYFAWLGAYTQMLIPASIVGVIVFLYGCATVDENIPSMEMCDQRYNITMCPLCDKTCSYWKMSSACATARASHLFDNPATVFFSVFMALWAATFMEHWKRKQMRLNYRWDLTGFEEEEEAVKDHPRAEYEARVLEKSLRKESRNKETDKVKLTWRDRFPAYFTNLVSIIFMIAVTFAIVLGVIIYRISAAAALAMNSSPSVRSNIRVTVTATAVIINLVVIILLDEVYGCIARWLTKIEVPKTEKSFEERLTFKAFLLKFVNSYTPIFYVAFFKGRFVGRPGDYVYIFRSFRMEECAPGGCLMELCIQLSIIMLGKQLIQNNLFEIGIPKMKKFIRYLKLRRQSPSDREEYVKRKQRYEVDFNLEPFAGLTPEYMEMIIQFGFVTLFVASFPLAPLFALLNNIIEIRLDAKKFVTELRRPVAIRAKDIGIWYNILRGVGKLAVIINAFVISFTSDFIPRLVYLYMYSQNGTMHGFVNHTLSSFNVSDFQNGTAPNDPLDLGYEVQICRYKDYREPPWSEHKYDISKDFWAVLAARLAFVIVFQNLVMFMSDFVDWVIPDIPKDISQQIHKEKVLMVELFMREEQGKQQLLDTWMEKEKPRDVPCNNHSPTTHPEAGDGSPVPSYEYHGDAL
Experiment: Inside-out patch recording of 1PBC block, mutant T518A
Format: cell-based
Details: for remaining activity at 1 µM: 1PBC 1; for remaining activity at 1 µM / remaining activity at 3 µM / remaining activity at 10 µM / remaining activity at 30 µM / remaining activity at 100 µM: read-out: fraction of unblocked current; for remaining activity at 3 µM: 1PBC 3; for remaining activity at 10 µM: 1PBC 10; for remaining activity at 30 µM: 1PBC 30; for remaining activity at 100 µM: 1PBC 100
Method: HEK293T cells (ATCC CRL-1573) were maintained in Dulbecco’s modified Eagle’s medium (DMEM; Sigma-Aldrich) supplemented with 10 U ml^−1 penicillin, 0.1 mg ml^−1 streptomycin (Sigma-Aldrich), 2 mM L-glutamine (Sigma-Aldrich), and 10% FBS (Sigma-Aldrich) in a humidified atmosphere containing 5% CO2 at 37 °C. HEK293S GnTI^− cells (ATCC CRL-3022) were maintained in HyClone HyCell TransFx-H medium (GE Healthcare) supplemented with 10 U ml^−1 penicillin, 0.1 mg ml^−1 streptomycin, 4 mM L-glutamine, 0.15% poloxamer 188 (Sigma-Aldrich), and 1% FBS in an atmosphere containing 5% CO2 at 185 rpm at 37 °C. The ac splice variant of mouse TMEM16A (UniProt ID: Q8BHY3), mouse TMEM16B (UniProt ID: Q8CFW1), or mouse TMEM16F (UniProt ID: Q6P9J9) bearing a 3C cleavage site, a Venus YFP, a Myc tag, and a Streptavidin-binding peptide (SBP) downstream of the open reading frame in a modified pcDNA3.1 vector (Invitrogen) were used as described previously[21],[31]. Mutations were introduced using a modified QuikChange method[58] and were verified by sequencing.
HEK293T cells were transfected with 3–4 μg DNA per 6 cm Petri dish using the calcium phosphate co-precipitation method and were used within 24–96 h after transfection. Recordings were performed on inside-out patches excised from HEK293T cells expressing the construct of interest. Patch pipettes were pulled from borosilicate glass capillaries (O.D. 1.5 mm, I.D. 0.86 mm, Sutter Instrument) and were fire-polished with a microforge (Narishige) before use. Pipette resistance was typically 3–8 MΩ when filled with the recording solutions detailed below. Seal resistance was typically 4 GΩ or higher. Voltage-clamp recordings were made using Axopatch 200B, Digidata 1550, and Clampex 10.7 (Molecular Devices). Analog signals were filtered with the in-built 4-pole Bessel filter at 10 kHz and were digitized at 20 kHz. Solution exchange was achieved using a gravity-fed system through a theta glass pipette mounted on an ultra-fast piezo-driven stepper (Siskiyou). […] All recordings were performed at 20 °C.
A symmetrical ionic condition was used throughout. Stock solution with Ca^2+-EGTA contained 150 mM NaCl, 5.99 mM Ca(OH)2, 5 mM EGTA, and 10 mM HEPES at pH 7.40. Stock solution with EGTA contained 150 mM NaCl, 5 mM EGTA, and 10 mM HEPES at pH 7.40. Free Ca^2+ concentrations were adjusted by mixing the stock solutions at the required ratios calculated using the WEBMAXC program (http://web.stanford.edu/~cpatton/webmaxcS.htm). Patch pipettes were filled with the stock solution with Ca^2+-EGTA, which has a free Ca^2+ concentration of 1 mM. 1PBC (ChemBridge) stock was reconstituted in anhydrous DMSO (Sigma-Aldrich) at 100 mM and stored at −20 °C. Working solutions with 1PBC were prepared by serial dilution. Unless otherwise stated, experiments were performed at a saturating Ca^2+ concentration as shown in Supplementary Table 1 and the primary data were corrected for current rundown as described previously[21],[25].
Concentration-response relations, obtained from the ratio of the I-V plots before and after the application of the blocker, were fitted to the Hill equation,1 I/Imax=1/1+IC50/[blocker]^h where I/Imax is the normalized current responses, IC50 defines the concentration at which inhibition is at its half-maximum, and h is the Hill coefficient.

IC50 (0 mV, 2 µM Ca2+): 5.67 µM
remaining activity at 1 µM (0 mV): 82.6%
remaining activity at 1 µM (20 mV): 78.8%
remaining activity at 1 µM (40 mV): 75.1%
remaining activity at 1 µM (60 mV): 71.9%
remaining activity at 1 µM (80 mV): 70.2%
remaining activity at 1 µM (100 mV): 70.4%
remaining activity at 1 µM (120 mV): 72.2%
remaining activity at 1 µM (140 mV): 76.4%
remaining activity at 1 µM (-20 mV): 86.3%
remaining activity at 1 µM (-40 mV): 90%
remaining activity at 1 µM (-60 mV): 91.9%
remaining activity at 1 µM (-80 mV): 93.5%
remaining activity at 1 µM (-100 mV): 95.1%
remaining activity at 1 µM (-120 mV): 96.6%
remaining activity at 1 µM (-140 mV): 98%
remaining activity at 3 µM (0 mV): 65.6%
remaining activity at 3 µM (20 mV): 60.1%
remaining activity at 3 µM (40 mV): 54.5%
remaining activity at 3 µM (60 mV): 51%
remaining activity at 3 µM (80 mV): 47.8%
remaining activity at 3 µM (100 mV): 46.3%
remaining activity at 3 µM (120 mV): 47.6%
remaining activity at 3 µM (140 mV): 50.5%
remaining activity at 3 µM (-20 mV): 71.2%
remaining activity at 3 µM (-40 mV): 76.7%
remaining activity at 3 µM (-60 mV): 81.4%
remaining activity at 3 µM (-80 mV): 84.1%
remaining activity at 3 µM (-100 mV): 87.3%
remaining activity at 3 µM (-120 mV): 90.5%
remaining activity at 3 µM (-140 mV): 92.2%
remaining activity at 10 µM (0 mV): 36.7%
remaining activity at 10 µM (20 mV): 31%
remaining activity at 10 µM (40 mV): 26.8%
remaining activity at 10 µM (60 mV): 24%
remaining activity at 10 µM (80 mV): 22.2%
remaining activity at 10 µM (100 mV): 21.1%
remaining activity at 10 µM (120 mV): 21.2%
remaining activity at 10 µM (140 mV): 22.5%
remaining activity at 10 µM (-20 mV): 42.4%
remaining activity at 10 µM (-40 mV): 48.9%
remaining activity at 10 µM (-60 mV): 54.9%
remaining activity at 10 µM (-80 mV): 59.5%
remaining activity at 10 µM (-100 mV): 64.7%
remaining activity at 10 µM (-120 mV): 68.5%
remaining activity at 10 µM (-140 mV): 71.3%
remaining activity at 30 µM (0 mV): 16.5%
remaining activity at 30 µM (20 mV): 13.3%
remaining activity at 30 µM (40 mV): 11.5%
remaining activity at 30 µM (60 mV): 10.1%
remaining activity at 30 µM (80 mV): 9.34%
remaining activity at 30 µM (100 mV): 8.78%
remaining activity at 30 µM (120 mV): 9.07%
remaining activity at 30 µM (140 mV): 9.98%
remaining activity at 30 µM (-20 mV): 19.7%
remaining activity at 30 µM (-40 mV): 23%
remaining activity at 30 µM (-60 mV): 27.8%
remaining activity at 30 µM (-80 mV): 31.9%
remaining activity at 30 µM (-100 mV): 35.9%
remaining activity at 30 µM (-120 mV): 39.5%
remaining activity at 30 µM (-140 mV): 43.5%
remaining activity at 100 µM (0 mV): 6.52%
remaining activity at 100 µM (20 mV): 4.86%
remaining activity at 100 µM (40 mV): 3.97%
remaining activity at 100 µM (60 mV): 3.5%
remaining activity at 100 µM (80 mV): 3.13%
remaining activity at 100 µM (100 mV): 2.74%
remaining activity at 100 µM (120 mV): 2.48%
remaining activity at 100 µM (140 mV): 2.4%
remaining activity at 100 µM (-20 mV): 8.19%
remaining activity at 100 µM (-40 mV): 9.29%
remaining activity at 100 µM (-60 mV): 11.5%
remaining activity at 100 µM (-80 mV): 13.7%
remaining activity at 100 µM (-100 mV): 16.6%
remaining activity at 100 µM (-120 mV): 18.8%
remaining activity at 100 µM (-140 mV): 21.5%
IC50 (20 mV, 2 µM Ca2+): 4.37 µM
IC50 (40 mV, 2 µM Ca2+): 3.5 µM
IC50 (60 mV, 2 µM Ca2+): 2.99 µM
log-fold IC50 (change of mutant vs WT) (80 mV): 0.1093
IC50 (80 mV, 2 µM Ca2+): 2.66 µM
IC50 (100 mV, 2 µM Ca2+): 2.55 µM
IC50 (120 mV, 2 µM Ca2+): 2.69 µM
IC50 (140 mV, 2 µM Ca2+): 3.08 µM
IC50 (-20 mV, 2 µM Ca2+): 7.32 µM
IC50 (-40 mV, 2 µM Ca2+): 9.5 µM
IC50 (-60 mV, 2 µM Ca2+): 12.2 µM
IC50 (-80 mV, 2 µM Ca2+): 14.7 µM
IC50 (-100 mV, 2 µM Ca2+): 18.1 µM
IC50 (-120 mV, 2 µM Ca2+): 21.5 µM
IC50 (-140 mV, 2 µM Ca2+): 25.1 µM
IC50 (T518A, V 0 mV): 5.67 µM
IC50 (T518A, V 20 mV): 4.37 µM
IC50 (T518A, V 40 mV): 3.5 µM
IC50 (T518A, V 60 mV): 2.99 µM
IC50 (T518A, V 80 mV): 2.66 µM
IC50 (T518A, V 100 mV): 2.55 µM
IC50 (T518A, V 120 mV): 2.69 µM
IC50 (T518A, V 140 mV): 3.08 µM
IC50 (T518A, V -20 mV): 7.32 µM
IC50 (T518A, V -40 mV): 9.5 µM
IC50 (T518A, V -60 mV): 12.2 µM
IC50 (T518A, V -80 mV): 14.7 µM
IC50 (T518A, V -100 mV): 18.1 µM
IC50 (T518A, V -120 mV): 21.5 µM
IC50 (T518A, V -140 mV): 25.1 µM
Compound: N#Cc1c(C(F)(F)F)cc(O)n2c1nc1ccccc12 [1PBC]
